ChEMBL document CHEMBL3882244, “IL-8 Receptor Antagonists” (2007)

Assays:
[1] = biological target: T1, C-X-C chemokine receptor type 2 (Homo sapiens, UniProt P25025); experiment: Displacement of [125I]IL8 from recombinant human CXCR2 expressed in CHO cell membranes measured after 1 hr by TopCount scintillation counting method
T1 sequence (P25025 whole entry): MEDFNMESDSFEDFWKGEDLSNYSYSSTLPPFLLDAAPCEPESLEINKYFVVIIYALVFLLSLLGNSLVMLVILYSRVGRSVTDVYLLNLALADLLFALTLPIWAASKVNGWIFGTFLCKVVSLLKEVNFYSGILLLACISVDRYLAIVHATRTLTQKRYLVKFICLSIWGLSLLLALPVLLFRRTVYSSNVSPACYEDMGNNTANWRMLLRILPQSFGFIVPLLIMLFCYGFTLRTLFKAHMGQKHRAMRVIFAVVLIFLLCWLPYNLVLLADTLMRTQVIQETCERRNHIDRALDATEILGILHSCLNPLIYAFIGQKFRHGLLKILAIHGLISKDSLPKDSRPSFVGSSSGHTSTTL

[2] = biological target: T1, C-X-C chemokine receptor type 2; experiment: Antagonist activity at CXCR2 (unknown origin) expressed in CHO-K1 cells co-expressing Galpha-16 assessed as inhibition of IL8-induced calcium mobilization measured after 10 mins by Fluo-4AM dye based FLIPR assay; format: functional, cell-based
Blood = experiment: Inhibition of GROalpha-induced CD11b integrin expression on human neutrophils in human whole blood pretreated for 10 mins followed by GROalpha challenge measured after 10 mins by FITC/PE staining based flow cytometry; format: functional, tissue-based

SMILES: CCc1ccccc1NC(=O)Nc1ccc(Cl)c(S(=O)(=O)[C@@H]2CCNC2)c1O
- IC50 [1]: < 30000 nM
- IC50 [2]: 5 to 600 nM

SMILES: O=C(Nc1cccnc1Cl)Nc1ccc(Cl)c(S(=O)(=O)C2CCNCC2)c1O
- IC50 [2]: 5 to 600 nM

SMILES: O=C(Nc1ccc(Cl)c(S(=O)(=O)C2CCNCC2)c1O)Nc1cccc2c1OC(F)(F)O2
- IC50 [1]: < 30000 nM
- IC50 [2]: 5 to 600 nM

SMILES: CCOC(=O)N1CCC(S(=O)(=O)c2c(Cl)ccc(NC(=O)Nc3cccc(F)c3Cl)c2O)CC1
- IC50 [2]: 5 to 600 nM

SMILES: Cc1c(F)cccc1NC(=O)Nc1ccc(Cl)c(S(=O)(=O)C2CNC2)c1O
- IC50 [1]: < 30000 nM
- IC50 [2]: 5 to 600 nM

SMILES: O=C(Nc1ccccc1Oc1ccccc1)Nc1ccc(Cl)c(S(=O)(=O)[C@H]2CCNC2)c1O
- IC50 (Blood): 500 to 2000 nM
- IC50 [2]: 5 to 600 nM

SMILES: O=C(Nc1ccc(Cl)c(S(=O)(=O)CC2CCNC2)c1O)Nc1cccc(F)c1Cl (configuration not stated)
- IC50 [2]: 5 to 600 nM

SMILES: O=C(Nc1ccccc1Oc1ccccc1)Nc1ccc(Cl)c(S(=O)(=O)C2C[C@H]3CC[C@@H](C2)N3)c1O (some centres not stated)
- IC50 [1]: < 30000 nM
- IC50 [2]: 5 to 600 nM

SMILES: O=C(Nc1ccc(Cl)c(S(=O)(=O)[C@H]2CCNC2)c1O)Nc1cccc(F)c1Cl
- IC50 [2]: 5 to 600 nM

SMILES: O=C(Nc1ccccc1OC(F)(F)F)Nc1ccc(Cl)c(S(=O)(=O)[C@@H]2CCNC2)c1O
- IC50 [2]: 5 to 600 nM

SMILES: O=C(Nc1ccc(Cl)c(S(=O)(=O)C2CCCNC2)c1O)Nc1cccc(Cl)c1Cl (configuration not stated)
- IC50 [1]: < 30000 nM
- IC50 [2]: 5 to 600 nM

SMILES: CCc1ccccc1NC(=O)Nc1ccc(Cl)c(S(=O)(=O)C2CCCNC2)c1O (configuration not stated)
- IC50 [2]: 5 to 600 nM

SMILES: O=C(Nc1ccccc1OC(F)(F)F)Nc1ccc(Cl)c(S(=O)(=O)C2CCNCC2)c1O
- IC50 [2]: 5 to 600 nM

SMILES: O=C(Nc1cccnc1Cl)Nc1ccc(Cl)c(S(=O)(=O)C2CCCNC2)c1O (configuration not stated)
- IC50 (Blood): 500 to 2000 nM
- IC50 [2]: 5 to 600 nM

SMILES: CCc1ccccc1NC(=O)Nc1ccc(Cl)c(S(=O)(=O)C2CCNCC2)c1O
- IC50 [1]: < 30000 nM
- IC50 [2]: 5 to 600 nM

SMILES: CCOC(=O)N1CCC(S(=O)(=O)c2c(Cl)ccc(NC(=O)Nc3cccc(F)c3C)c2O)CC1
- IC50 [2]: 5 to 600 nM

SMILES: O=C(Nc1ccc(Cl)c(S(=O)(=O)C2C[C@H]3CC[C@@H](C2)N3)c1O)Nc1cccc(F)c1Cl (some centres not stated)
- IC50 [2]: 5 to 600 nM

SMILES: Cc1c(F)cccc1NC(=O)Nc1ccc(Cl)c(S(=O)(=O)[C@@H]2C[C@H]3CC[C@@H](C2)N3C)c1O
- IC50 [1]: < 30000 nM
- IC50 [2]: 5 to 600 nM

SMILES: Cc1c(F)cccc1NC(=O)Nc1ccc(Cl)c(S(=O)(=O)CC2CCNC2)c1O (configuration not stated)
- IC50 [1]: < 30000 nM
- IC50 [2]: 5 to 600 nM

SMILES: O=C(Nc1ccccc1Oc1ccccc1)Nc1ccc(Cl)c(S(=O)(=O)C2CCNCC2)c1O
- IC50 [2]: 5 to 600 nM

SMILES: O=C(Nc1cccnc1Cl)Nc1ccc(Cl)c(S(=O)(=O)C2C[C@H]3CC[C@@H](C2)N3)c1O (some centres not stated)
- IC50 [2]: 5 to 600 nM

SMILES: O=C(Nc1cccnc1Cl)Nc1ccc(Cl)c(S(=O)(=O)[C@H]2CCCNC2)c1O
- IC50 [1]: < 30000 nM
- IC50 (Blood): 500 to 2000 nM

SMILES: O=C(Nc1ccc(Cl)c(S(=O)(=O)[C@@H]2CCNC2)c1O)Nc1cccc2c1OC(F)(F)O2
- IC50 [2]: 5 to 600 nM

SMILES: O=C(Nc1ccccc1OC(F)(F)F)Nc1ccc(Cl)c(S(=O)(=O)CC2CCNC2)c1O (configuration not stated)
- IC50 [1]: < 30000 nM
- IC50 [2]: 5 to 600 nM

SMILES: O=C(Nc1ccccc1OC(F)(F)F)Nc1ccc(Cl)c(S(=O)(=O)C2CCCNC2)c1O (configuration not stated)
- IC50 [2]: 5 to 600 nM

SMILES: O=C(Nc1ccc(Cl)c(S(=O)(=O)C2CNC2)c1O)Nc1cccc(F)c1Cl
- IC50 [2]: 5 to 600 nM

SMILES: Cc1c(F)cccc1NC(=O)Nc1ccc(Cl)c(S(=O)(=O)C2C[C@H]3CC[C@@H](C2)N3)c1O (some centres not stated)
- IC50 [2]: 5 to 600 nM

SMILES: O=C(Nc1cccnc1Cl)Nc1ccc(Cl)c(S(=O)(=O)C2CNC2)c1O
- IC50 [1]: < 30000 nM
- IC50 [2]: 5 to 600 nM

SMILES: CCOC(=O)N1CCC(S(=O)(=O)c2c(Cl)ccc(NC(=O)Nc3ccccc3Oc3ccccc3)c2O)CC1
- IC50 [1]: < 30000 nM
- IC50 [2]: 5 to 600 nM

SMILES: O=C(Nc1ccc(Cl)c(S(=O)(=O)[C@H]2CCCNC2)c1O)Nc1cccc(F)c1Cl
- IC50 (Blood): 500 to 2000 nM
- IC50 [2]: 5 to 600 nM

SMILES: O=C(Nc1ccc(Cl)c(S(=O)(=O)[C@@H]2CCNC2)c1O)Nc1cccc(F)c1Cl
- IC50 [1]: < 30000 nM
- IC50 [2]: 5 to 600 nM

SMILES: O=C(Nc1ccc(Cl)c(S(=O)(=O)C2CCNCC2)c1O)Nc1cccc(F)c1Cl
- IC50 [1]: < 30000 nM
- IC50 (Blood): 500 to 2000 nM
- IC50 [2]: 5 to 600 nM

SMILES: Cc1c(F)cccc1NC(=O)Nc1ccc(Cl)c(S(=O)(=O)C2CCNCC2)c1O
- IC50 [1]: < 30000 nM
- IC50 (Blood): 500 to 2000 nM
- IC50 [2]: 5 to 600 nM

SMILES: Cc1c(F)cccc1NC(=O)Nc1ccc(Cl)c(S(=O)(=O)[C@H]2CCNC2)c1O
- IC50 [2]: 5 to 600 nM

SMILES: O=C(Nc1cccnc1Cl)Nc1ccc(Cl)c(S(=O)(=O)[C@H]2CCNC2)c1O
- IC50 (Blood): 500 to 2000 nM
- IC50 [2]: 5 to 600 nM

SMILES: Cc1c(F)cccc1NC(=O)Nc1ccc(Cl)c(S(=O)(=O)[C@H]2CCCNC2)c1O [DANIRIXIN]
- IC50 (Blood): 500 to 2000 nM
